Assay results from ChEMBL document CHEMBL1153850, “Novel derivatives of 6-mercaptopurine: synthesis, characterization and antiproliferative activities of S-allylthio-mercaptopurines” (Eur J Med Chem, 2009).
Calls of active or inactive are those of the source. The rule behind the calls is not given here.

Legend:
MOLT-4 = experiment: Antiproliferative activity against human MOLT4 cells assessed as [methyl-3H]thymidine incorporation after 16 hrs by XTT assay; type: functional, cell-based; settings: MOLT-4, 16 h
NCI-N87 [1] = experiment: Antiproliferative activity against human NCI-N87 cells assessed as [methyl-3H]thymidine incorporation after 16 hrs by XTT assay; type: functional, cell-based; settings: for IC50: NCI-N87, 16 h
HT-29 [2] = experiment: Antiproliferative activity against multidrug-resistant human HT-29 cells assessed as [methyl-3H]thymidine incorporation after 16 hrs by XTT assay; type: functional, cell-based; settings: HT-29, 16 h
NCI-N87 [3] = experiment: Antiproliferative activity against human NCI-N87 cells assessed as residual proliferation at 100 uM after 16 hrs by XTT assay; type: functional
HL-60 [4] = experiment: Antiproliferative activity against human HL60 cells assessed as [methyl-3H]thymidine incorporation after 16 hrs by XTT assay; type: functional, cell-based; settings: HL-60, 16 h
NCI-N87 [5] = experiment: Antiproliferative activity against human NCI-N87 cells at 150 uM after 16 hrs by XTT assay; type: functional
NCI-N87 [6] = experiment: Antiproliferative activity against human NCI-N87 cells assessed as residual proliferation at 50 uM after 16 hrs by XTT assay; type: functional
Jurkat = experiment: Antiproliferative activity against human Jurkat cells assessed as [methyl-3H]thymidine incorporation after 16 hrs by XTT assay; type: functional, cell-based
U-937 = experiment: Antiproliferative activity against human U937 cells assessed as [methyl-3H]thymidine incorporation after 16 hrs by XTT assay; type: functional, cell-based; settings: U-937, 16 h
Daudi [7] = experiment: Antiproliferative activity against human Daudi cells assessed as [methyl-3H]thymidine incorporation after 16 hrs by XTT assay; type: functional, cell-based
HeLa [8] = experiment: Antiproliferative activity against human HeLa cells assessed as [methyl-3H]thymidine incorporation after 16 hrs by XTT assay; type: functional, cell-based
Daudi [9] = experiment: Antiproliferative activity against human Daudi cells assessed as residual proliferation at 50 uM after 16 hrs by XTT assay; type: functional
Daudi [10] = experiment: Antiproliferative activity against human Daudi cells assessed as residual proliferation at 100 uM after 16 hrs by XTT assay; type: functional
PBMC = experiment: Inhibition of T cell mitogen-induced blastogenesis in human PBMC after 4 days; type: functional, cell-based; settings: 96 h
HeLa [11] = experiment: Cytotoxicity against human HeLa cells assessed as reduced cell viability at 150 uM by trypan blue exclusion assay relative to control; type: functional
HT-29 [12] = experiment: Induction of multidrug-resistant human HT-29 cell death at 150 uM after 16 hrs using propidium iodide staining by fluorescence microscopy; type: functional, cell-based
HeLa [13] = experiment: Antiproliferative activity against human HeLa cells at 110 uM assessed as [methyl-3H]thymidine incorporation after 16 hrs by XTT assay relative to control; type: functional, cell-based
Daudi [14] = experiment: Antiproliferative activity against human Daudi cells at <=20 uM assessed as [methyl-3H]thymidine incorporation after 16 hrs by XTT assay relative to control; type: functional
NCI-N87 [15] = experiment: Antiproliferative activity against human NCI-N87 at 100 uM assessed as [methyl-3H]thymidine incorporation after 16 hrs by XTT assay relative to control; type: functional, cell-based
[16] = Cytotoxicity against human B-CLL cells assessed as residual cell viability at 150 uM after 16 hrs by trypan blue exclusion assay relative to control; type: functional
HT-29 [17] = experiment: Cytotoxicity against multidrug-resistant human HT-29 cells assessed as reduced cell viability at 150 uM by trypan blue exclusion assay relative to control; type: functional
Daudi [18] = experiment: Antiproliferative activity against human Daudi cells at 50 uM after 16 hrs by XTT assay; type: functional
[19] = Induction of apoptosis in human B-CLL cells assessed as increase in apoptotic cells at 100 uM after 16 hrs by FACS analysis; type: functional
HT-29 [20] = experiment: Cytotoxicity against multidrug-resistant human HT-29 cells assessed as inhibition of epithelial-like growth at 150 uM after 16 hrs using propidium iodide staining by phase-contrast microscopy; type: functional, cell-based
Daudi [21] = experiment: Cytotoxicity against human Daudi cells assessed as residual cell viability at 50 uM after 16 hrs by trypan blue exclusion assay relative to control; type: functional
[22] = Induction of apoptosis in human B-CLL cells assessed as increase in apoptotic cells at 50 uM after 16 hrs by FACS analysis; type: functional
[23] = Induction of apoptosis in human B-CLL cells after 48 hrs by FACS analysis; type: functional, cell-based
[24] = Antiproliferative activity against human B-CLL cells assessed as cell viability after 16 hrs by trypan blue exclusion assay; type: functional, cell-based
HeLa [25] = experiment: Cytotoxicity against human HeLa cells assessed as reduced cell viability at 200 uM by trypan blue exclusion assay relative to control; type: functional
[26] = Induction of apoptosis in human B-CLL cells assessed as increase in apoptotic cells at 150 uM after 16 hrs by FACS analysis; type: functional
HL-60 [27] = experiment: Antiproliferative activity against human HL60 cells assessed as cell viability after 16 hrs by [methyl-3H]thymidine incorporation based XTT assay relative to control; type: functional
HeLa [28] = experiment: Antiproliferative activity against human HeLa cells assessed as cell viability after 16 hrs by [methyl-3H]thymidine incorporation based XTT assay relative to control; type: functional

Compound	IC50 (MOLT-4)	IC50 (NCI-N87 [1])	IC50 (HT-29 [2])	IC50 (HL-60 [4])	Activity (NCI-N87 [5])	Activity (NCI-N87 [6])	IC50 (Jurkat)	IC50 (U-937)	IC50 (Daudi [7])	IC50 (HeLa [8])	IC50 (PBMC)	Activity (NCI-N87 [1])	Activity (HeLa [13])	Activity (Daudi [14])	Activity (NCI-N87 [15])	Activity [19]	Activity (Daudi [7])	Activity (HeLa [8])	Activity (HT-29 [20])	Activity [22]	further results
C=CCSSc1ncnc2c1ncn2[C@H]1O[C@@H](CO)[C@H](O)[C@@H]1O	16.9 µM	120 µM	> 200 µM	86.1 µM	Active	70%	69.1 µM	113 µM	70.8 µM	> 200 µM	–	–	–	–	–	–	–	–	–	–	Activity (NCI-N87 [3]): 55%; Activity (Daudi [9]): 60%; Activity (Daudi [10]): 25%
Cn1cnc([N+](=O)[O-])c1Sc1ncnc2[nH]cnc12 [AZATHIOPRINE]	–	–	–	–	–	–	–	–	–	–	0.23 µM	–	–	–	–	–	–	–	–	–	–
C=CCSSc1ncnc2nc[nH]c12	8.9 µM	70.5 µM	–	42 µM	–	50%	54.7 µM	46.7 µM	38.3 µM	–	–	Dose-dependent effect	Active	50%	Active	95.26%	Dose-dependent effect	Dose-dependent effect	Active	37.88%	Activity (HeLa [11]): 65%; Activity (HT-29 [12]): Active; Activity [16]: 75%; Activity (HT-29 [17]): 40%; Activity (Daudi [18]): 15%; Activity (Daudi [21]): 20%
C=CCS[S+]([O-])CC=C (stereo not drawn) [ALLICIN]	–	16.8 µM	83.8 µM	5.5 µM	–	–	–	19.7 µM	35.3 µM	–	–	–	–	–	–	–	–	–	–	–	IC50 [23]: 20 µM
Sc1ncnc2nc[nH]c12 [MERCAPTOPURINE ANHYDROUS]	50.5 µM	–	> 200 µM	–	80%	–	> 200 µM	> 200 µM	> 200 µM	> 200 µM	0.149 µM	Dose-dependent effect	inactive	inactive	inactive	9.7%	Dose-dependent effect	Dose-dependent effect	inactive	9.78%	IC50 [24]: > 200 µM; Activity (HeLa [25]): 75%; Activity [26]: 8.68%
OC[C@@H]1O[C@H](n2cnc3c(S)ncnc32)[C@@H](O)[C@H]1O	24.8 µM	–	–	–	75%	–	99 µM	> 200 µM	–	–	–	–	–	–	–	–	–	–	–	–	Activity (HL-60 [27]): inactive; Activity (HeLa [28]): inactive
